Results on two compounds are retold here after patent US5202312A, “Imidazole-containing peptides having immunomodulatory activity” (Tanabe Seiyaku Co., Ltd., priority 1988, dated 1993).

Experiment [1] concerns picryl chloride-induced delayed type hypersensitivity. In words: Inhibitory effect on picryl chloride-induced delayed type hypersensitivity (ear swelling). Conditions: BALB/C female mice, oral, once a day for 7 days, dose 10 mg/kg. The format is in vivo. The procedure:
EXPERIMENT 2 Inhibitory effect on picryl chloride-induced delayed type
BALB/C female mice (10-week-old) were sensitized by spreading one ml of an ethanol solution containing 7 w/v % of picryl chloride to abdominal skin of the mice. In a "test group", a test compound was administered orally to the mice a day for 7 days from the day of sensitization.
7 Days after the sensitization, 10 μl of an olive oil solution containing 1 w/v % of picryl chloride was spread to both side skin of left external ear. 24 Hours later, the mice was sacrificed and the thickness of both ears was immediately measured.
The inhibition (%) of swelling of exterernal ear was calculated according to the following formula: [formula]

Experiment [2] is described as follows: Immunomodulatory effect (general statement, no method).

Where a SMILES comes first, the peptide text is derived from it.

For the compound `COC(=O)[C@H](Cc1c[nH]cn1)NC(=O)[C@H](Cc1ccccc1)NC(=O)N(Cc1ccccc1)NC(=O)OC(C)(C)C` [Example 13, 3-tert-butoxycarbonyl-2-benzylcarbazoyl-L-phenylalanyl-L-histidine methyl ester], the “Inhibition (%) of swelling of external ear” value in experiment [1] is 72.6%. For `COC(=O)[C@H](Cc1c[nH]cn1)NC(=O)[C@H](Cc1ccccc1)NC(=O)[C@H](Cc1ccccc1)NC(C)=O` [N-acetyl-L-phenylalanyl-L-phenylalanyl-L-histidine methyl ester] (Ac-Phe-Phe-His-OMe), the immunomodulatory effect result in experiment [2] is recorded as “scarcely an immunomodulatory effect”.
